# Results reported in patent US4748251A, “7-n-aminomethylenemitomycin derivative” (priority 1985, dated 1988).
# Read-outs that look alike come from different tables or passages of the source.
# What was measured:
# [1] = system: Streptococcus faecalis ATCC 10541; experiment: Antibacterial activity, agar dilution method, pH 7.0 (SF); type: cell-based; details: Enterococcus faecalis
# Protocol: (§1) Antibacterial activities of some compounds covered by the present invention against various bacteria are shown by the minimum growth inhibitory concentration (μg/ml) in Table 1. The minimum growth inhibitory concentration was measured at pH 7.0 according to the agar dilution method. In the table, bacteria are indicated by the following letters.
# SF: Streptococcus faecalis ATCC 10541
# [2] = system: Staphylococcus aureus ATCC 6538P; experiment: Antibacterial activity, agar dilution method, pH 7.0 (SA); type: cell-based; details: ATCC6538P
# Protocol: as §1
# SA: Staphylococcus aureus ATCC 6538P
# Bacillus subtilis 10707 = experiment: Antibacterial activity, agar dilution method, pH 7.0 (BS); type: cell-based
# Protocol: as §1
# BS: Bacillus subtilis 10707
# [3] = system: Proteus vulgalis ATCC 6897; experiment: Antibacterial activity, agar dilution method, pH 7.0 (PV); type: cell-based
# Protocol: as §1
# PV: Proteus vulgalis ATCC 6897
# [4] = system: Shigella sonnei ATCC 9290; experiment: Antibacterial activity, agar dilution method, pH 7.0 (SS); type: cell-based
# Protocol: as §1
# SS: Shigella sonnei ATCC 9290
# [5] = system: Klebsiella pneumoniae ATCC 10031; experiment: microbe, parasite or virus in culture; type: cell-based; details: ATCC10031, pH 7, read-out: minimum growth inhibitory concentration
# Protocol: The minimum growth inhibitory concentration was measured at pH 7.0 according to the agar dilution method. In the table, bacteria are indicated by the following letters.
# KP: Klebsiella pneumoniae ATCC 10031
# leukemia P-388 = experiment: Anti-tumor activity against leukemia P-388; type: in vivo, mouse (CDF1); details: for maximum increased life span: P-388, Table 3, maximum over doses; for ILS %: i.p. once, 33 days
# Protocol: (§2) Ascites was sampled from the abdominal cavity of tumor-bearing mice (DBA/2) 7 days after transplantation of P-388 ascitic tumor. The number of the P-388 cells in the ascites was counted. A suspension of the tumor cells of 5×10^6 /ml was prepared using sterilized physiological saline, and 0.2 ml of the suspension (containing 1×10^6 cells) was intraperitoneally transplanted to CDF1 mice weighing 20 to 25 g. Twenty-four hours after the transplantation of the tumor, a test compound was intraperitoneally administered once to groups of the CDF1 mice, each group consisting of 6 mice. […] The effect of the compound was evaluated by a ratio of a mean survival days of the group treated with the compound to a mean survival days of the control group (untreated group) after 33 days of observation (Increased Life Span, ILS %).
# Sarcoma 180 solid tumor = experiment: Anti-tumor activity against Sarcoma 180 solid tumor in mice; type: in vivo, mouse (ddY strain); details: Mus musculus, Sarcoma-180, ip, 168 h; dose reducing tumor volume to 50% of control; intraperitoneal 24 hours after implantation; tumor measured 7 days after implantation
# Excerpt: (§3) Taking some of the compounds falling within the present invention as examples, anti-tumor activity (ED50) against Sarcoma 180 solid tumor and acute toxicity (LD50) as well as effect on peripheral leucocytes number (WBC4000) are shown in Table 2.
# (1) Effect against Sarcoma 180 solid tumor cells:
# 5×10^6 cells of Sarcoma 180 solid tumor were implanted into ddY mice. 7 days later, ascites cells were sampled. The cells were washed once with a sterilized physiological solution of sodium chloride and were used to prepare a cell supspension containing 5×10^7 cells per ml. On each occasion, 0.1 ml of the cell suspension was subcutaneously implanted into the right axilla of a male mouse (ddY strain; body weight 20±2 g). The test compound was dissolved in a physiological solution of sodium chloride with or without addition of Tween 80 and was administered intraperitoneally into each mouse of a group consisting of 5 mice at a dose of 0.1-0.2 ml, 24 hours after the implantation of the tumor cells.
# The anti-tumor activity was determined in the following manner. 7 days after the implantation, the major axis (a) and the minor axis (b) of the tumor were measured to calculate a value of "a×b^2 /2" which corresponds to the volume of the tumor. The anti-tumor activity was expressed by the ratio of the volume of the tumors (T) of the group of animals administered with the test compound to the corresponding volume of tumors (C) of the untreated animals.
# (2) Determination of ED50 :
# On graph paper, T/C (the ratio of the volume of tumors of treated animals to that of control animals) was indicated by an arithmetic scale on the longitudinal axis and the administered amount of the test compound was indicated by a logarithmic scale on the lateral axis. The relationship between the dose and T/C was shown by a straight line determined by the method of least squares, from which a dose corresponding to T/C of 0.5 was obtained.
# Acute toxicity in mice = experiment: Acute toxicity in mice; parameters: species or system mouse (ddY strain); details: mouse, in vivo, ip; intraperitoneally once, ddY mice, 14 days observation, Beherns Kaerber's method
# Protocol: as §3
# Each animal of the test group consisting of 5 ddY mice was administered intraperitoneally once with a test compound. […] The LD50 was determined by Beherns Kaerber's method.
# peripheral leucocytes = experiment: Effect on the peripheral leucocytes number in tumor-carrying mice; type: in vivo, mouse (ddY strain); details: dose which reduces peripheral leucocytes number to 4000/mm^3; intraperitoneal, blood 4 days later
# Excerpt: as §3
# WBC4000 indicates the dose of a substance which reduces the peripheral leucocytes number to 4000/mm^3.
# (4) Effect on the peripheral leucocytes number:
# Sarcoma 180 solid tumor cells (5×10^6) were subcutaneously implanted into the right axilla of each mouse (body weight 20±2 g) of a group consisting of 5 male mice (ddY strain). 24 hours after implantation,a test compound was intraperitoneally administered to each animal. 4 days later, blood (each 0.02 ml) was collected from the suborbital plexus vein of each tumor-carrying animal. The collected sample of blood was dispersed in 9.98 ml of Cell-Kit Seven solution. One drop of saponin solution was added to the sample to dissolve erythrocytes and then a microcell counter was used to count the number of leucocytes. On graph paper, the number of leucocytes was indicated on the y-axis by an arithmetic scale and the dose of the test compound was indicated on the x-axis by a logarithmic scale. The relationship between the number of peripheral leucocytes and the dosage of the test compound was plotted and the dosage corresponding to 4000 peripheral leucocytes/mm^3 (about half the number of leucocytes of normal mice) was obtained. This value is denoted in Table 2 by WBC4000.
# [6] = system: P-388 leukemia resistant to mitomycin C; experiment: Anti-tumor activity against P-388 leukemia resistant to mitomycin C; type: in vivo, mouse (CDF1); details: for maximum increased life span: P-388 resistant to mitomycin C, Table 4, maximum over doses; for ILS %: i.p. once
# Protocol: as §2
# tumor [7] = experiment: Anti-tumor activity of Compound A stated in words (GB 2121796A / inventors' own observation); details: noted by the present inventors
# tumor [8] = details: reported in GB 2121796A; cited from earlier work
# [9] = ATCC10541, pH 7, read-out: minimum growth inhibitory concentration
# [10] = pH 7, read-out: minimum growth inhibitory concentration
# [11] = Bacillus subtilis, 10707, pH 7, read-out: minimum growth inhibitory concentration
# [12] = ATCC9290, pH 7, read-out: minimum growth inhibitory concentration
compound,measurement,setting,value
"C=C1C2=C(C(=O)C(C)=C(N=CN(C)C)C2=O)N2C[C@H]3[C@H](N3C)[C@]12O (stereo partly drawn) [Compound 1, 9a-O-Demethyl-7-N-dimethylaminomethylenemitomycin G]",MIC,[1]; [9],0.078 µg/mL
same,MIC,[2]; [10],0.078 µg/mL
same,MIC,Bacillus subtilis 10707; [11],0.078 µg/mL
same,MIC,[3]; [10],10 µg/mL
same,MIC,[4]; [12],10 µg/mL
same,MIC,[5],10 µg/mL
same,ILS,"leukemia P-388; dose 10 mg/kg, similar experiment",83%
"C=C1C2=C(C(=O)C(C)=C(N=CN(C)C)C2=O)N2C[C@@H]3N[C@@H]3[C@]12OC [Compound 2, 1a-Demethyl-7-N-dimethylaminoethylenemitomycin G]",MIC,[1]; [9],1.3 µg/mL
same,MIC,[2]; [10],0.31 µg/mL
same,MIC,Bacillus subtilis 10707; [11],0.078 µg/mL
same,MIC,[3]; [10],10 µg/mL
same,MIC,[4]; [12],20 µg/mL
same,MIC,[5],10 µg/mL
"CC1=C(N=CN(C)C)C(=O)C2=C(C1=O)N1C[C@H]3[C@H](N3C)[C@]1(O)[C@H]2COC(N)=O (stereo partly drawn) [Compound 3a, 7-N-Dimethylaminomethylenemitomycin D]",MIC,[1]; [9],5 µg/mL
same,MIC,[2]; [10],10 µg/mL
same,MIC,Bacillus subtilis 10707; [11],2.5 µg/mL
same,MIC,[3]; [10],20 µg/mL
same,MIC,[4]; [12],> 20 µg/mL
same,MIC,[5],2.5 µg/mL
same,ED50,Sarcoma 180 solid tumor,3.9 mg/kg
same,LD50 at 336 h,Acute toxicity in mice,8.3 mg/kg
same,WEC4000,peripheral leucocytes,4.3 mg/kg
same,maximum increased life span,leukemia P-388,213%
same,ILS %,leukemia P-388; dose 0.25 mg/kg,28%
same,ILS %,leukemia P-388; dose 0.5 mg/kg,53%
same,ILS %,leukemia P-388; dose 1.0 mg/kg,58%
same,ILS %,leukemia P-388; dose 2.0 mg/kg,58%
same,ILS %,leukemia P-388; dose 4.0 mg/kg,145%
same,ILS %,leukemia P-388; dose 6.0 mg/kg,213%
same,ILS %,leukemia P-388; dose 8.0 mg/kg,98%
same,anti-tumor activity against leukemia P-388 compared with Compound A,"leukemia P-388; in words, versus Compound A",more excellent anti-tumor activity than Compound A
same,maximum increased life span,[6],143%
same,ILS %,[6]; dose 1.0 mg/kg,28%
same,ILS %,[6]; dose 2.0 mg/kg,103%
same,ILS %,[6]; dose 4.0 mg/kg,143%
same,ILS %,[6]; dose 6.0 mg/kg,58%
same,ILS %,[6]; dose 8.0 mg/kg,51%
"CC1=C(N=CN(C)C)C(=O)C2=C(C1=O)N1C[C@H]3[C@H](N3C)[C@]1(O)[C@H]2COC(=O)N=CN(C)C (stereo partly drawn) [Compound 3b, 7-N,N^10-bis(dimethylaminomethylene)mitomycin D]",ED50,Sarcoma 180 solid tumor,20.9 mg/kg
same,LD50 at 336 h,Acute toxicity in mice,26.3 mg/kg
same,WEC4000,peripheral leucocytes,18.7 mg/kg
"CO[C@]12[C@@H]3[C@H](CN1C1=C(C(=O)C(N=CN(C)C)=C(C)C1=O)[C@@H]2COC(N)=O)N3C (stereo partly drawn) [Compound 4a, 7-N-Dimethylaminomethylenemitomycin E]",MIC,[1]; [9],0.63 µg/mL
same,MIC,[2]; [10],0.63 µg/mL
same,MIC,Bacillus subtilis 10707; [11],0.16 µg/mL
same,MIC,[3]; [10],20 µg/mL
same,MIC,[4]; [12],10 µg/mL
same,MIC,[5],2.5 µg/mL
"CO[C@]12[C@@H]3[C@H](CN1C1=C(C(=O)C(N=CN(C)C)=C(C)C1=O)[C@@H]2COC(=O)N=CN(C)C)N3C (stereo partly drawn) [Compound 4b, 7-N,N^10-bis(dimethylaminomethylene)mitomycin E]",MIC,[1]; [9],5 µg/mL
same,MIC,[2]; [10],10 µg/mL
same,MIC,Bacillus subtilis 10707; [11],2.5 µg/mL
same,MIC,[5],40 µg/mL
"CC1=C(N=CN(C)C)C(=O)C2=C(C1=O)N1C[C@H]3[C@H](N3C)[C@]1(O)[C@@H]2COC(N)=O (stereo partly drawn) [Compound 6c, 9-Epi-7-N-dimethylaminomethylenemitomycin D]",MIC,[1]; [9],1.3 µg/mL
same,MIC,[2]; [10],2.5 µg/mL
same,MIC,Bacillus subtilis 10707; [11],0.63 µg/mL
same,MIC,[3]; [10],5 µg/mL
same,MIC,[4]; [12],40 µg/mL
same,MIC,[5],0.63 µg/mL
same,ED50,Sarcoma 180 solid tumor,14 mg/kg
same,LD50 at 336 h,Acute toxicity in mice,9.4 mg/kg
same,WEC4000,peripheral leucocytes,11.2 mg/kg
"CO[C@@]12[C@H](COC(N)=O)C3=C(C(=O)C(C)=C(N=CN(C)C)C3=O)N1C[C@@H]1N[C@@H]12 [Compound A, 7-N-Dimethylaminomethylenemitomycin C]",maximum increased life span,leukemia P-388,75%
same,ILS %,leukemia P-388; dose 0.0625 mg/kg,15%
same,ILS %,leukemia P-388; dose 0.125 mg/kg,48%
same,ILS %,leukemia P-388; dose 0.25 mg/kg,45%
same,ILS %,leukemia P-388; dose 0.5 mg/kg,63%
same,ILS %,leukemia P-388; dose 1.0 mg/kg,68%
same,ILS %,leukemia P-388; dose 2.0 mg/kg,75%
same,ILS %,leukemia P-388; dose 4.0 mg/kg,20%
same,maximum increased life span,[6],73%
same,ILS %,[6]; dose 0.25 mg/kg,47%
same,ILS %,[6]; dose 0.5 mg/kg,73%
same,ILS %,[6]; dose 1.0 mg/kg,68%
same,ILS %,[6]; dose 2.0 mg/kg,47%
same,ILS %,[6]; dose 4.0 mg/kg,-41%
same,ILS %,[6]; dose 6.0 mg/kg,-47%
same,anti-tumor activity,tumor [7],excellent anti-tumor activity
same,anti-tumor activity,tumor [8],particularly excellent anti-tumor activity
"CO[C@@]12[C@H](COC(N)=O)C3=C(C(=O)C(C)=C(N)C3=O)N1C[C@@H]1N[C@@H]12 [MM-C, mitomycin C, reference compound]",MIC,"[1]; ATCC10541, SF, pH 7.0, agar dilution, read-out: minimum growth inhibitory concentration",0.31 µg/mL
same,MIC,"[2]; SA, pH 7.0, agar dilution, read-out: minimum growth inhibitory concentration",0.16 µg/mL
same,MIC,"Bacillus subtilis 10707; Bacillus subtilis, 10707, BS, pH 7.0, agar dilution, read-out: minimum growth inhibitory concentration",0.04 µg/mL
same,MIC,"[3]; PV, pH 7.0, agar dilution, read-out: minimum growth inhibitory concentration",0.08 µg/mL
same,MIC,"[4]; ATCC9290, SS, pH 7.0, agar dilution, read-out: minimum growth inhibitory concentration",2.5 µg/mL
